Results as given in patent publication US6593275B1, “Use of prolines for improving growth and other properties of plants and algae” (The Regents of the University of California, priority 2000, dated 2003).
Values joined by “and” are separate entries in the source; they are usually repeats but may differ in a detail not shown here. Equal entries are not always repeated. Marks after values point to notes of the source that are not given here.

What was measured:
Cotton-Pima = assay: Single foliar treatment of cotton seedlings; assay type: in vivo; conditions: 16 days old, harvested 9 day after a single treatment, untreated 1.27
Experimental: (§1) TABLE 7 and TABLE 8 show the results when commercial vegetables such as cantaloupe, and tomatoes, and a crop such as cotton were tested for the effects of the metabolite on their growth rates. These plants received one foliar application of 2-hydroxy-5-oxoproline as young seedlings. These plants grew more rapidly as determined by either fresh weight or leaf length. The cantaloupe and cotton seedlings were harvested and their fresh weight was determined.
(§2) *Plants were 16 days old and were harvested 9 day after the treated plants had received a single treatment.

Tomato-Halley 3155 = assay: Multiple foliar treatment of tomato; assay type: in vivo; conditions: 24 days old, 5 weekly treatments, untreated 11.97
Experimental: as §1
** Plants were 24 days old and treated plants had received 5 weekly treatments.

[1] = tested on: oat plants (commercial cultivar Lodi); assay: Daily root treatment of oats with 2-hydroxy-5-oxoproline; assay type: in vivo
Experimental: (§3) Having generally described the invention, the following EXAMPLES provide additional details of the effects of the metabolite, 2-hydroxy-5-oxoproline and other prolines on plant properties. In the EXAMPLES, the concentration of 2-hydroxy-5-oxoproline in plant leaves was determined by extracting the 2-hydroxy-5-oxoproline into acidified water from a known weight of fresh leaf tissue. The sampled leaves were fully extended and photosynthetically active. The amount of 2-hydroxy-5-oxoproline was measured using a high-performance liquid chromatograph fitted with an optical detector (210 nm) and a column packed with a sulfonated polystyrene di-vinyl benzene polymer suitable for ion-exclusion chromatography of Kreb cycle intermediates. The metabolite was eluted with 0.01N H2SO4 in water. The chromatograph peak corresponding to 2-hydroxy-5-oxoproline was identified by the known column retention time of 2-hydroxy-5-oxoproline. A standard curve was prepared using chemically synthesized 2-hydroxy-5-oxoproline (structure confirmed using 13-C nuclear magnetic resonance) and varying the amount of this standard injected into the system. The area integrated under the peak was correlated with the known amount of standard injected into the chromatograph. The amount of 2-hydroxy-5-oxoproline in leaf tissue samples could then be quantitatively determined from the area under the appropriate peak.
Also in the EXAMPLES, plants were grown at 73° F. with 16 h length days and 8 h length nights. […]
The treatment was commenced when the seedlings were 7 days old and continued for 56 days; the 2-hydroxy-5-oxoproline was supplied daily to their roots as 50 ml of between 0.5 to 50 μM solutions of 2-hydroxy-5-oxoproline in Hoagland's plant nutrient solution having a pH of 6.3. […] When the amount of dry weight was expressed as a function of fresh weight, the percent dry weight of the treated plants ranged from 8.1 to 8.4% when compared with 7.6% for untreated control plants. […]

[2] = tested on: alfalfa commercial cultivar Saranac; assay: Daily root treatment of alfalfa: growth, nodulation and flowering; assay type: in vivo
Experimental: (§4) Also in the EXAMPLES, plants were grown at 73° F. with 16 h length days and 8 h length nights. Fluorescent lights were supplemented with incandescent bulbs to generate intensities of 1760, 980 or 360 microeinsteins per meter squared per second as indicated in the EXAMPLES. Plants were grown in a standard potting mixture of peat moss, vermiculite and perlite, and nutrients were supplied by watering daily with the commonly used Hoagland's plant nutrient solution which contains an array of known plant nutrients and is considered to be appropriate to meet the nutrient needs of plants as they normally receive them from soil.
Growth and nodulation were improved by the treatment. The alfalfa commercial cultivar Saranac, was grown as described hereinabove using 1760 microeinsteins per meter squared per second as the light intensity, and watered daily with quarter-strength Hoagland's plant nutrient solution that had been modified to replace the nitrogen (nitrate) with chloride in the solution. Nodulating alfalfa seedlings were treated beginning at about 4 days of age, with the same quantity of 2-hydroxy-5-oxoproline as described in EXAMPLE 1 for plants receiving the 2-hydroxy-5-oxoproline through their roots.
The time to flowering or emergence of seed structures of treated daily and untreated plants was tracked in alfalfa and oats.

lettuce = assay: Weekly foliar treatment of lettuce with 2-hydroxy-5-oxoproline; assay type: in vivo
Experimental: as §3, §4
The fresh weight, dry weight, percent dry weight, 2-hydroxy-5-oxoproline concentration in the leaves, and the CO2 fixation rates are all increased in the treated plants. The greater dry weight percent increases the value of these plants and that of algae as fuel because the increase provides a greater amount of combustible material per gram of fresh weight (that is, a greater amount of carbon was fixed by the plant), and because an increase in dry weight percent reduces the water content in the fuel which is an energy cost when the fuel is combusted. It also increases the value of these plants as sources of biomass suitable for conversion to other products such as chemicals, liquid fuels, or hydrogen, to name a few examples. Treatments were applied weekly to the foliar parts of the plants using an air brush until approximately 20% drip. The aqueous treatment solution contained 2-hydroxy-5-oxoproline (10 mg/liter) in 0.07% sodium laurel sulfate, and 1.2% glycerol at a pH of 6.3. The plants were harvested at 63 days of age after 7 treatments; the harvest was made 7 days after the last treatment. These plants were provided Hoagland's plant nutrient solution to their roots and grown under light intensity of […] microeinsteins.
At harvest (63 days of age) none of the 12 control plants had emerged flowering structures, whereas 6 of the 12 treated plants had well-developed flowering structures.

thrip = assay: Thrip infestation of alfalfa plants with elevated 2-hydroxy-5-oxoproline; assay type: in vivo; conditions: of 80 plants, one week after initial exposure; controls 15 of 80
Description: Thrip infestation of plants having increased 2-hydroxy-5-oxoproline concentration was compared with that of control plants having a normal level of 2-hydroxy-5-oxoproline in their leaves. Control (80 plants) and plants with elevated levels of 2-hydroxy-5-oxoproline (80 plants) were subjected to thrip infestation; these two sets of plants were randomly intermingled in the greenhouse to assure equal exposure to the pest. Of the set of control plants, 15 were infested with thrip while only 11 of the other set of plants were infested with thrip one week after initial exposure to the pests. The light intensity for growth was approximately 1760 microeinsteins per meter squared per second.

[3] = tested on: Switchgrass (commercial cultivar Alamo); assay: Daily root treatment of switchgrass; assay type: in vivo
Experimental: as §4
Average fresh weight of the foliar part of the plants was 115% of that for the control plants.

[4] = tested on: wildtype oats (commercial cultivar Lodi); assay: Daily root treatment of oats; selection of responders by CO2 fixation rate and tillers; assay type: in vivo
Experimental: Oats were treated with 2-hydroxy-5-oxoproline through their roots as described in EXAMPLE 1. Individual plants that responded to the increased level of 2-hydroxy-5-oxoproline were identified by measuring the rate of CO2 fixation using a CO2 fixation meter at the maximum light intensity for photosynthetic carbon dioxide fixation of 2000 microeinsteins per meter squared per second. The rates were measured in the leaves of treated plants on two successive days and the plants were allowed to mature and produce seed.

Cantaloupe-Imperial = assay: Single foliar treatment of cantaloupe seedlings; assay type: in vivo; conditions: 16 days old, harvested 9 day after a single treatment, untreated 0.85
Experimental: as §1, §2

Chlorella sorokinian = assay: Growth rate of algae with 2-hydroxy-5-oxoproline in growth medium; assay type: cell-based; conditions: treated algae, CO2 sole carbon source; untreated approximately 60 h
Experimental: The growth rate of algae, Chlorella sorokinian (obtained from the American Type Culture Collection), was increased when 2-hydroxy-5-oxoproline was added to the growth medium. The mass accumulation growth curve for this single-cell photosynthetic organism is described as a sigmoidal function. […] This reflects substantially accelerated growth for the treated algae cultures when compared with untreated cultures. The growth medium for algae growth is described in Biotechnology & Bioengineering Vol. IV by Daboll et al., pages 281-297 (1962). Carbon dioxide was provided as the sole carbon source and was allowed to sparge into the cultures of both treated and untreated cultures. The light source supplied approximately 980 ft candles. Media pH was initially adjusted to 8.0 using either NaOH or HCl, and subsequently maintained at pH 7.0 by controlling the introduction of CO2.

glutamine synthetase = assay: Glutamine synthetase activity in leaf and root of treated oats (transferase assay); assay type: in vivo; conditions: for GS Activity, Leaf: leaf of treated oats, controls 10.5; for GS Activity, Root: root of treated oats, controls 7.8; for Leaf/Root GS Activity Ratio: treated oats, controls 1.35
Experimental: Glutamine synthetase activity was measured using the transferase assay as described in “Glutamine Synthetase (E. coli)” by B. Shapiro and E. Stadtman, Meth. Enzym. 17A, 910 (1970). The GS activity is expressed in micromoles per gram of fresh weight of tissue per minute.
(§5) TABLE 5 and FIG. 3 hereof show the results of increasing the ratio of leaf/root GS activity on plant growth and on the concentration of 2-hydroxy-5-oxoproline in the leaves of oat plants treated with a compound (tabtoxinine-β-lactam) that binds to glutamine synthetase and impairs the normal destruction of this enzyme, thereby causing the leaf GS activity to increase while the root GS activity decreases. (For methodology, see, e.g., T. Knight, D. Bush, and P. Langston-Unkefer, Plant Physiol. 88, 333 (1988)). The compound (Tabtoxinine-β-lactam) was delivered to the roots. […] The level of 2-hydroxy-5-oxoproline was also observed to increase in the leaves of these plants as a consequence of the increased leaf/root GS activity ratio.

oat plants [5] = assay: Root treatment of oats; effects of increasing leaf/root GS ratio on growth and leaf 2-hydroxy-5-oxoproline; assay type: in vivo; conditions: for Whole Plant Fresh Weight (FWT): oats, compound delivered to the roots, controls 14.95; for 2-Hydroxy-5-oxoproline in Leaf: treated oats, controls 4.9
Experimental: as §3, §4, §5

oat plants [6] = assay: Foliar treatment of oats with 5-oxoproline; assay type: in vivo; conditions: oats harvested 17 days after single foliar treatment, 40.5 mg per milliliter, 1% dimethylsulfoxide, pH 6.3
Experimental: A solution containing 40.5 mg per milliliter of 2-pyrrolidone-5-carboxylic acid and 1% dimethylsulfoxide in water at a pH of 6.3 was applied, but other solutions of this compound were also found to be effective. These plants were grown under lights of 980 microeinsteins per meter squared per second and the treatment was applied to their foliar parts.

[7] = alfalfa, daily root treatment (soil), controls 100
[8] = lettuce, harvest at 63 days, control 100%
[9] = individual treated oat plants, non-responders

O=C1CC[C@@](O)(C(=O)O)N1 [2-hydroxy-5-oxoproline]
Foliar Fresh Weight, Treated plants (Cotton-Pima): 1.85* g | Foliar Fresh Weight, Treated plants (Tomato-Halley 3155): 19.08** g | seed structures displayed earlier than untreated control plants ([1]; oats treated daily): 3 to 5 days | 2-Hydroxy-5-oxoproline Concentration in Leaf ([1]; oats, daily root treatment, control 4.9): 7.0 micromoles/gFWT | Whole Plant Fresh Weight (FWT) ([1]; oats, roots treated daily for 56 days with 50 ml of 0.5 to 50 μM solution, control 14.95): 18.06 g | flowered sooner than untreated plants ([2]; alfalfa treated daily): 2 to 5 days | Nodule number/plant (%) [2, 7]: 214% | Nodule weight/plant (%) [2, 7]: 165% | Whole plant Fresh weight (%) [2, 7]: 145% | CO2 Fixation Rate (lettuce; 34 day-old lettuce plants, control 6.6): 9.0 micromoles CO2 fixed/m^2/sec | CO2 Fixation Rate (lettuce; 57 day-old lettuce plants, control 6.9): 9.6 micromoles CO2 fixed/m^2/sec | Whole Plant Fresh Weight (FWT) (lettuce; lettuce, 7 weekly foliar treatments 10 mg/liter, harvest at 63 days, control 55.3): 65.2 g | Whole Plant Dry Weight (DW) (lettuce; lettuce, harvest at 63 days, control 4.00): 6.35 g | Whole Plant Dry Weight, percent of control (lettuce; [8]): 159% | Whole Plant Fresh Weight, percent of control (lettuce; [8]): 118% | 2-Hydroxy-5-oxoproline Concentration in Leaf (lettuce; lettuce, weekly foliar treatment, control 6.25): 13.37 micromoles/gFWT | 2-Hydroxy-5-oxoproline Concentration in Leaf, percent of control (lettuce; lettuce, control 100%): 212% | number of plants with well-developed flowering structures (lettuce; of the 12 treated lettuce plants at harvest (63 days of age), none of 12 controls): 6 | number of plants infested with thrip (thrip): 11 | Average fresh weight of the foliar part, percent of control plants ([3]; switchgrass, daily root treatment): 115% | dry weight per unit of fresh weight, foliar parts ([3]; treated switchgrass, untreated 14.9%): 16.5% | dry weight per unit of fresh weight, roots ([3]; treated switchgrass, untreated 16.7%): 12.05% | emergence of 3rd and 4th leaves (FIG. 4) ([3]; treated versus control switchgrass, as a function of time): consistently emerged leaves sooner than did the control plants | Number of Tillers in Mature Plant ([4]; average of non-responders, average of untreated plants 13.7): 14.0 | CO2 fixation Rate as Differential CO2 Concentration ([4]; average of non-responders, average of untreated plants 18.2): 18.2 ppm | Number of Tillers in Mature Plant ([4]; average of responders, average of untreated plants 13.7): 17.0 | CO2 fixation Rate as Differential CO2 Concentration ([4]; average of responders, average of untreated plants 18.2): 25.3 ppm | CO2 fixation Rate as Differential CO2 Concentration [4, 9]: 19.9 ppm and 19.6 ppm and 17.2 ppm and 16.1 ppm | Number of Tillers in Mature Plant [4, 9]: 14 (2×) and 13 and 15 | Number of Tillers in Mature Plant ([4]; individual treated oat plants, responders): 21 (2×) and 19 and 12 and 15 and 17 (3×) and 13 and 18 | CO2 fixation Rate as Differential CO2 Concentration ([4]; individual treated oat plants, responders, light 2000 microeinsteins): 25.2 ppm and 24.5 ppm and 24.2 ppm (2×) and 23.6 ppm and 23.2 ppm and 28.9 ppm and 28.0 ppm and 25.9 ppm and 25.3 ppm | Foliar Fresh Weight, Treated plants (Cantaloupe-Imperial): 1.55* g | time to reach the mid-log phase of growth (Chlorella sorokinian): approximately 40 h | GS Activity, Leaf (glutamine synthetase): Leaf: 16.9 micromoles/g FWT/min | GS Activity, Root (glutamine synthetase): Root: 6.4 micromoles/g FWT/min | Leaf/Root GS Activity Ratio (glutamine synthetase): 2.64 | Whole Plant Fresh Weight (FWT) (oat plants [5]): 18.07 g | 2-Hydroxy-5-oxoproline in Leaf (oat plants [5]): 7.04 micromoles/g FWT

N[C@@H](CC[C@]1(O)CNC1=O)C(=O)O [Tabtoxinine-β-lactam, tabtoxinine-β-lactam, reference compound]
GS Activity, Leaf (glutamine synthetase): Leaf: 25.9 micromoles/g FWT/min | GS Activity, Root (glutamine synthetase): Root: 3.9 micromoles/g FWT/min | Leaf/Root GS Activity Ratio (glutamine synthetase): 6.6 | Whole Plant Fresh Weight (FWT) (oat plants [5]): 24.6 g | 2-Hydroxy-5-oxoproline in Leaf (oat plants [5]): 16.6 micromoles/g FWT

O=C1CCC(C(=O)O)N1 (centres unmarked) [5-oxoproline, 2-pyrrolidone-5-carboxylic acid]
fresh foliar weight, percent of untreated control plants (oat plants [6]): 126%
